# Assay results published in article PMC12845261, “Design, Synthesis, and Biological Evaluation of N-Acyl-Hydrazone-Linked Quinazolinone Derivatives with Antioxidant, Antimicrobial, and Anticancer Potential” (Pharmaceuticals, 2025).
# Experiments:
# Assay type in all cases: cell-based
# S. aureus ATCC 25923 [1] = experiment: Qualitative antimicrobial activity, adapted Kirby-Bauer (inhibition zone); conditions: 10 μL of 10 mg/mL DMSO stock, mean ± SD
# Description: (§1) For the evaluation of antimicrobial activity, the following reference strains were used: S. aureus ATCC 25923, E. faecalis ATCC 29212, E. coli ATCC 25922, P. aeruginosa ATCC 27853 and C. albicans ATCC 10231. The microbial suspensions were prepared at a density of 1.5 × 10^8 CFU/mL, corresponding to the McFarland 0.5 nephelometric standard. These suspensions were obtained from 18–24 h cultures developed on solid media (Mueller-Hinton for bacteria, Sabouraud for yeast). Antimicrobial activity was assessed using an adapted Kirby-Bauer method according to CLSI (Clinical and Laboratory Standards Institute). In addition to the 10 mg/mL stock solutions prepared in DMSO for each compound, a solvent control was used. Each stock solution (10 μL) was distributed in spot on the medium inoculated with the interest strain. After measuring the diameter of the inhibition zone (IZD) around the spot (mm), the results were expressed as the mean ± standard deviation (SD) for each compound tested in duplicate.
# E. coli ATCC 25922 [2] = experiment: as above; conditions: 10 μL of 10 mg/mL DMSO stock, mean ± SD
# Description: as §1
# C. albicans ATCC 10231 [3] = experiment: as above; conditions: 10 μL of 10 mg/mL DMSO stock, mean ± SD
# Description: as §1
# E. faecalis ATCC 29212 [4] = experiment: as above; conditions: 10 μL of 10 mg/mL DMSO stock, mean ± SD
# Description: as §1
# P. aeruginosa ATCC 27853 [5] = experiment: as above; conditions: 10 μL of 10 mg/mL DMSO stock, mean ± SD
# Description: as §1
# S. aureus ATCC 25923 [6] = experiment: Quantitative antimicrobial activity, serial binary microdilution (MIC, IC50); conditions: 24 h; for MIC (mg/mL) / MIC: S. aureus ATCC 25923, 37 °C, DMSO control 2.5
# Description: (§2) For the evaluation of antimicrobial activity, the following reference strains were used: S. aureus ATCC 25923, E. faecalis ATCC 29212, E. coli ATCC 25922, P. aeruginosa ATCC 27853 and C. albicans ATCC 10231.
# (§3) Quantitative analysis was performed using the method of serial binary microdilutions in liquid medium (Tryptone Soy Broth for bacteria and Sabouraud Broth for yeasts) in plates with 96 wells. Stock solutions of 10 mg/mL were made in DMSO, and the range of concentrations tested for each compound was 5000–0.16 μg/mL. Simultaneously, the DMSO control was carried out under the same working conditions. Each well was inoculated with 10 μL of microbial suspension, adjusted to a density of 1.5 × 10^8 CFU/mL prepared from 18 to 24 h cultures. After 24 h of incubation at 37 °C, microbial growth and multiplication were evaluated both macroscopically and spectrophotometrically at 620 nm to establish the MIC values. […] Blanks were made for each sample concentration, and the formula was applied: Microbial viability(%)=Asample−Ablank/Astrain control−Asterility control·100
# E. coli ATCC 25922 [7] = experiment: as above; conditions: for MIC: Escherichia coli, ATCC25922, E. coli ATCC 25922, 24 h, 37 °C, DMSO control 1.25
# Description: as §2, §3
# C. albicans ATCC 10231 [8] = experiment: as above; conditions: Candida albicans, ATCC10231, 24 h, 37 °C, DMSO control 1.25
# Description: as §2, §3
# E. faecalis ATCC 29212 [9] = experiment: as above; conditions: 37 °C, DMSO control 2.5; for MIC (mg/mL): 24 h; for MIC: Enterococcus faecalis, ATCC29212, 24 h
# Description: as §2, §3
# P. aeruginosa ATCC 27853 [10] = experiment: as above; conditions: Pseudomonas aeruginosa, ATCC27853, 24 h, 37 °C, DMSO control 1.25
# Description: as §2, §3
# E. coli ATCC 25922 [11] = experiment: Microbicidal activity (MMC); conditions: DMSO control 5
# Description: For the evaluation of antimicrobial activity, the following reference strains were used: S. aureus ATCC 25923, E. faecalis ATCC 29212, E. coli ATCC 25922, P. aeruginosa ATCC 27853 and C. albicans ATCC 10231. To determine the MMCs, 5 μL of culture was taken from each well and distributed on solid medium. The plates were incubated for 20–24 h at 37 °C. The lowest concentration at which no microbial growth was observed was considered MMC.
# [12] = system: VERO (non-tumoral African green monkey kidney epithelial cells); experiment: Cytotoxicity, MTT assay; conditions: 24 h; for Cytotoxic effect on normal cells (in words): 3.125 to 50 µM
# [13] = Staphylococcus aureus, ATCC25923
# [14] = at lower concentrations (below 50 µM)
SMILES,IZD (mm) (S. aureus ATCC 25923 [1]),IZD (mm) (E. coli ATCC 25922 [2]),IZD (mm) (C. albicans ATCC 10231 [3]),IZD (mm) (E. faecalis ATCC 29212 [4]),IZD (mm) (P. aeruginosa ATCC 27853 [5]),MIC (mg/mL) (S. aureus ATCC 25923 [6]),MIC (S. aureus ATCC 25923 [6]; [13]) [µg/mL],MIC (E. coli ATCC 25922 [7]) [µg/mL],MIC (C. albicans ATCC 10231 [8]) [µg/mL],MIC (mg/mL) (E. faecalis ATCC 29212 [9]),MIC (E. faecalis ATCC 29212 [9]) [µg/mL],MIC (P. aeruginosa ATCC 27853 [10]) [µg/mL],MMC (E. coli ATCC 25922 [11]) [mg/mL],Cytotoxic effect on normal cells (in words) [12],"IC50 (S. aureus ATCC 25923 [6]; Staphylococcus aureus, ATCC25923, S. aureus, four-parameter fit of microbial viability) [µg/mL]","Effect on cell viability (in words) [12, 14]","IC50 (antimicrobial activity) compared with solvent control (E. coli ATCC 25922 [7]; E. coli, versus DMSO, p < 0.05)","Effect on cell viability (in words) ([12]; at 50 µM, compared to the untreated control)"
"Cc1nc2ccccc2c(=O)n1CC(=O)N/N=C/c1cc(Br)ccc1O [Compound 1a, N′-[(E)-(5-bromo-2-hydroxyphenyl)methylidene]-2-(2-methyl-4-oxoquinazolin-3(4H)-yl)acetohydrazide]",0.00 ± 0.00,0.00 ± 0.00,0.00 ± 0.00,0.00 ± 0.00,0.00 ± 0.00,specifically active,1250,1250,625,specifically active,1250,1250,–,–,–,–,–,–
"COc1ccc(O)c(/C=N/NC(=O)Cn2c(C)nc3ccccc3c2=O)c1 [Compound 1e, N′-[(E)-(2-hydroxy-5-methoxyphenyl)methylidene]-2-(2-methyl-4-oxoquinazolin-3(4H)-yl)acetohydrazide]",0.00 ± 0.00,0.00 ± 0.00,0.00 ± 0.00,0.00 ± 0.00,0.00 ± 0.00,specifically active,1250,5000,1250,–,5000,5000,5,strong cytotoxic effects,–,–,–,–
"Cc1nc2ccccc2c(=O)n1CC(=O)N/N=C/c1cc(Br)cc(Br)c1O [Compound 1b, N′-[(E)-(3,5-bromo-2-hydroxyphenyl)methylidene]-2-(2-methyl-4-oxoquinazolin-3(4H)-yl)acetohydrazide]",12.33 ± 0.58,0.00 ± 0.00,0.00 ± 0.00,0.00 ± 0.00,0.00 ± 0.00,specifically active,312,1250,625,–,> 5000,5000,–,–,85.7,statistically significant increase in cell viability,–,–
"Cc1nc2ccccc2c(=O)n1CC(=O)NN [Compound 2, 2-(2-methyl-4-oxoquinazolin-3(4H)-yl)acetohydrazide]",0.00 ± 0.00,0.00 ± 0.00,6.33 ± 1.53,0.00 ± 0.00,0.00 ± 0.00,–,2500,1250,1250,–,2500,1250,–,well tolerated,–,–,–,–
"COc1cccc(/C=N/NC(=O)Cn2c(C)nc3ccccc3c2=O)c1O [Compound 1c, N′-[(E)-(2-hydroxy-3-methoxyphenyl)methylidene]-2-(2-methyl-4-oxoquinazolin-3(4H)-yl)acetohydrazide]",7.67 ± 0.58,0.00 ± 0.00,6.67 ± 0.58,7.67 ± 0.58,0.00 ± 0.00,–,2500,1250,2500,–,2500,1250,5,–,–,–,significantly lower IC50 values than the solvent control,–
"COc1ccc(/C=N/NC(=O)Cn2c(C)nc3ccccc3c2=O)c(O)c1 [Compound 1d, N′-[(E)-(2-hydroxy-4-methoxyphenyl)methylidene]-2-(2-methyl-4-oxoquinazolin-3(4H)-yl)acetohydrazide]",0.00 ± 0.00,0.00 ± 0.00,0.00 ± 0.00,0.00 ± 0.00,0.00 ± 0.00,–,2500,1250,5000,–,5000,1250,5,–,–,statistically significant increase in cell viability,–,statistically significant decrease in viability
"COc1cc(/C=N/NC(=O)Cn2c(C)nc3ccccc3c2=O)cc([N+](=O)[O-])c1O [Compound 1f, N′-[(E)-(4-hydroxy-3-methoxy-5-nitrophenyl)methylidene]-2-(2-methyl-4-oxoquinazolin-3(4H)-yl)acetohydrazide]",0.00 ± 0.00,0.00 ± 0.00,0.00 ± 0.00,0.00 ± 0.00,0.00 ± 0.00,–,2500,1250,1250,specifically active,1250,1250,–,well tolerated,–,–,–,–
